Laboratory results taken from patent publication US20180362488A1, “STEREOISOMER OF FLOCOUMAFEN, COMPOSITION AND RODENTICIDE BAIT COMPRISING SAME, AND METHOD FOR CONTROLLING TARGET RODENT PESTS” (priority 2015, published 2018).

Type: in vivo, Sprague-Dawley rats
Settings: compared with enantiomer E4 and flocoumafen
Experimental: The configurational stereoisomers of flocoumafen are separated by high-pressure liquid chromatography using a LUX® Cellulose-4 chiral column (00F-4490-B0, Phenomenex, Le Pecq, France) as stationary phase and a mixture formed from acetonitrile (A) and water comprising 0.1% by volume of formic acid (B), with an AB volume ratio of 92/8, as mobile phase with a flow rate of the liquid mobile phase in the chromatography column of 0.25 mL/minute. 1 μL of extract to be analysed at a concentration of 1 μg/mL of acetonitrile is injected. Detection is performed by tandem mass spectrometry (MS/MS) in negative electrospray ionization (ESI) mode. The temperature of the nebulizer gas is 350° C. and its flow rate is 8 L/minute. The pressure of the nebulizer gas is brought to 2700 hPa. In particular, the MRM (“Multiple Reaction Monitoring”) transitions m/z 541.1→382.1 and m/z 541.1→161, corresponding to the flocoumafen signal, are analysed.
About 0.525 g (±0.025 g) of rat liver is weighed out accurately and placed in a 50 mL polypropylene tube. 10 mL of acetone are added and the suspension is homogenized using an Ultra-Turrax® homogenizer/disperser for a time of about 30 seconds. The homogenizer/disperser shaft is rinsed with hot water and then twice with 20 mL of acetone in a polypropylene tube. The homogenate is centrifuged for 5 minutes at a centrifugation speed of 3000 rpm (revolutions per minute). […]

In the case of `O=c1oc2ccccc2c(O)c1C1CC(c2ccc(OCc3ccc(C(F)(F)F)cc3)cc2)Cc2ccccc21` (single isomer, unassigned) [Enantiomer E2], the “Persistence in the liver of the male and female rats” value was “lower than the persistence of enantiomer E4 of said diastereoisomer D1,4 and lower than the persistence of flocoumafen”.
